The values that follow come from ChEMBL document CHEMBL3638947, “TRPV1 antagonists” (2015).

Each structure is given as a SMILES string.

One may read the IC50 as the concentration that gives 50% inhibition.

In the test the target is Transient receptor potential cation channel subfamily V member 1 (Homo sapiens, UniProt Q8NER1). Briefly: Activation Assay: The cDNA for human TRPV1 (hTRPV1) was isolated by reverse transcriptase-polymerase chain reaction (RT-PCR) from human small intestine poly A+ RNA supplied by Clontech (Palo Alto, Calif.) using primers designed surrounding the initiation and termination codons identical to the published sequences (Hayes et al. Pain 2000, 88, 205-215). The resulting cDNA PCR products were subcloned into pCIneo mammalian expression vector (Promega) and fully sequenced using fluorescent dye-terminator reagents (Prism, PerkinElmer Applied Biosystems Division) and a PerkinElmer Applied Biosystems Model 373 DNA sequencer or Model 310 genetic analyzer. Expression plasmids encoding the hTRPV1 cDNA were transfected into HEK293 cells using Lipofectamine. Forty-eight hours after transfection, the neomycin-resistant cells were selected with growth medium containing 800 ug/mL Geneticin (Life Technologies, formerly Gibco BRL). Surviving individual colonies were isolated and screened for TRPV1 activity. Type of test: cell-based.
Chain of Transient receptor potential cation channel subfamily V member 1 (Q8NER1 whole entry): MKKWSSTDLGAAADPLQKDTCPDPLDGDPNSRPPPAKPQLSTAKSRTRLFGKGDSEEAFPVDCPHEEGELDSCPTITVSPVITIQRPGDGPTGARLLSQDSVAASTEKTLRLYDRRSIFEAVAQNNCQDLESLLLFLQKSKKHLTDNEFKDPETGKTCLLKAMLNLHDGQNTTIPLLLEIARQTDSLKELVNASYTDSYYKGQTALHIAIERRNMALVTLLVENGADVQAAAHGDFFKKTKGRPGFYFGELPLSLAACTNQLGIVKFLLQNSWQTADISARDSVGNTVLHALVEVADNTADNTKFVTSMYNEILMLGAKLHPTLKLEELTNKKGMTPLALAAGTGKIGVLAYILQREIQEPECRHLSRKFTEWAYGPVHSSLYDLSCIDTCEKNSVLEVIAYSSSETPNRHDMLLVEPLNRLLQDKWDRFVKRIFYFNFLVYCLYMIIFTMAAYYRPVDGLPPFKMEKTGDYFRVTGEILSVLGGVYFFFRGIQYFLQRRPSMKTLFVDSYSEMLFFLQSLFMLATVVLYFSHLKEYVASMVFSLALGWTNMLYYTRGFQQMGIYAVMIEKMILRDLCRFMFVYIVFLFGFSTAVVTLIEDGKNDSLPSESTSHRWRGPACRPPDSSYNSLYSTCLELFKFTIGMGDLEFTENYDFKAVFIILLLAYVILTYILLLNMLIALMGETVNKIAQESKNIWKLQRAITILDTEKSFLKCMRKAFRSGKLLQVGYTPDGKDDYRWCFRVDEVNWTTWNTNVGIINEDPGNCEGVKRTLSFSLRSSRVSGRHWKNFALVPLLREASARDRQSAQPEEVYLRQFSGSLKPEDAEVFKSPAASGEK
As to `CCC1(CC)C[C@@H](NC(=O)Nc2cccc3c2CNC(=O)N3C)c2ccc(F)cc2O1`, the IC50 was 24 nM. Then `CN1C(=O)CCc2ccc(NC(=O)N[C@@H]3CCOc4c3cccc4C(F)(F)F)cc21`, with 94 nM; and `CN1C(=O)NCc2c(NC(=O)N[C@@H]3CC(C)(C)c4ccccc43)cccc21`, with 29 nM; and `CN1C(=O)NCc2c(NC(=O)N[C@@H]3CC(CF)(CF)Oc4c3ccc(Cl)c4F)cccc21`, with 25 nM.

For the compound `Cn1c(=O)ccc2c(NC(=O)N[C@@H]3CC(C)(C)Oc4cc(F)ccc43)cccc21`, the IC50 came to 10 nM. Take `O=C1CCc2ccc(NC(=O)N[C@@H]3CC(CF)(CF)Oc4cc(Cl)ccc43)cc2N1`: the IC50 was 35 nM. With `CN1C(=O)NCc2c(NC(=O)N[C@@H]3CC(C)(C)Oc4cc(Cl)ccc43)cccc21`, the IC50 turned out to be 42 nM.

On to `CN1Cc2ccc(NC(=O)N[C@@H]3CC(C)(C)Oc4c(F)cccc43)cc2NC1=O`, for which the IC50 came out at 820 nM. As for `CN1C(=O)NCc2c(NC(=O)N[C@@H]3CC(C)(C)Oc4ccccc43)cccc21`, the figure is 37 nM.
